According to patent US11214569B2, “Prodrugs of quinuclidine ring-containing muscarinic agonists and compositions and methods thereof” (Lenz Therapeutics, Inc., priority 2018, dated 2022):

Test: pH vs. solution stability of phosphono oxylmethyl prodrugs
Type: physicochemical

Substance	Solubility (pH of solution 5.22)	Solubility (pH of solution 6.22)	Solubility (pH of solution 7.22)	Solubility (pH of solution 5.45)	Solubility (pH of solution 6.45)	Solubility (pH of solution 7.45)
phosphono oxylmethyl aceclidine	Best	Fair	Poor			
phosphono oxymethyl talsaclidine				Best	Fair	Poor
